Measurements published in ChEMBL document CHEMBL5726751, “Substituted spirocyclic inhibitors of autotaxin” (2019).

Molecular target: Autotaxin (Homo sapiens, UniProt Q13822)
Experiment: The following assays and their respective methods are carried out with the compounds according to the present invention. […] Those skilled in the art will appreciate that a variety of assay formats may be used to determine the activity of the compounds of this invention.Autotaxin LPC Cascade Assay:Assay Buffer:100 mM Tris-HCl, pH=9500 mM NaCl5 mM MgCl25 mM CaCl20.05% Triton X 100Reagents:Enzyme Source Stock conc Working conc. Final conc. Autotaxin X-Chem 4.6 μM 20 nM 5 nM LPC Sigma L5254 8 mM in assay buffer 400 μM 100 μM Choline Oxidase Sigma C5896 50 U/mL in water 0.8 U/mL 0.1 U/mL HRP Sigma P8375 1000 U/mL in water 8 U/mL 1 U/mL Ampliflu Red Sigma 90101 100 mM in DMSO 400 μM 50 μM.
Assay type: organism-based

SMILES	IC50 [nM]
CC(C)[C@@H](NC(=O)c1cc(C(F)(F)F)ccc1F)C(=O)N1CCC2(CC1)C(=O)N(C)C(=O)N2c1ccc(OCCN(C)C)cc1	> 1000
CC(C)[C@@H](NC(=O)c1ccc(C#N)c(Cl)c1)C(=O)N1CCC2(CC1)C(=O)N(C)CN2c1ccccc1	> 1000
CN1C(=O)N(c2ccc3[nH]ncc3c2)C2(CCN(C(=O)C3(NC(=O)c4cc(C(F)(F)F)ccc4F)COC3)CC2)C1=O	> 1000
Cc1cccc(C(=O)N[C@@H](C(=O)N2CCC3(CC2)C(=O)N(C)CN3c2cccc(C#N)c2)C(C)C)c1F	> 1000
Cc1cccc(C(=O)N(C)[C@@H](C(=O)N2CCC3(CC2)C(=O)N(C)CN3c2ccccc2)C(C)C)c1	> 1000
